Results reported in article PMC5474226 (Cancer research, 2017).
Where two headings read alike, the source gives them in different places.

How the values were obtained:
[1] = tested on: advanced non-small cell lung cancer; conditions: ref [8], cited from earlier work
granzyme B = conditions: tetrapeptide with C-terminus aspartate modified to aldehyde; ref [21],[22]; cited from earlier work
[2] = target: granzyme B (activated from pro-granzyme B) (UniProt P04187); assay: enzyme inhibition assay
Chain of UniProt P04187 (P04187 21-247): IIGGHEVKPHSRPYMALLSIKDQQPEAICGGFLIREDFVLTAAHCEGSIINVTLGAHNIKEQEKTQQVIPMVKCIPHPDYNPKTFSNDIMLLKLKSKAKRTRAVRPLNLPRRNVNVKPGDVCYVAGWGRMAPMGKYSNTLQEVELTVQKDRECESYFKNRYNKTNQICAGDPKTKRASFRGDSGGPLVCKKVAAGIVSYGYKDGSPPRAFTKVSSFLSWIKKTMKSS

Substance: pembrolizumab
- response rate ([1]; patients with >1% positive PD-L1 staining): 18%
- response rate ([1]; tumors with greater than 50% positive staining for PD-L1): 30%

Substance: Ile-Glu-Phe-Asp
- Ki (granzyme B): 80 nM

Substance: NOTA–β-Ala–Gly–Gly–Ile–Glu–Phe–Asp–CHO (NOTA-GZP), gallium-labelled (peptide)
- Ki [2]: 47 nM
